Results from paper PMC7224190, “Pharmacological inhibition of PRMT7 links arginine monomethylation to the cellular stress response” (Nature Communications, 2020).

Key:
PRMT7 [1] = target: T1, PRMT7 (Homo sapiens, UniProt Q9NVM4); assay: radiometric SPA methyltransferase assay (negative control compound, weak); type: biochemical
T1 sequence (Q9NVM4 1-692): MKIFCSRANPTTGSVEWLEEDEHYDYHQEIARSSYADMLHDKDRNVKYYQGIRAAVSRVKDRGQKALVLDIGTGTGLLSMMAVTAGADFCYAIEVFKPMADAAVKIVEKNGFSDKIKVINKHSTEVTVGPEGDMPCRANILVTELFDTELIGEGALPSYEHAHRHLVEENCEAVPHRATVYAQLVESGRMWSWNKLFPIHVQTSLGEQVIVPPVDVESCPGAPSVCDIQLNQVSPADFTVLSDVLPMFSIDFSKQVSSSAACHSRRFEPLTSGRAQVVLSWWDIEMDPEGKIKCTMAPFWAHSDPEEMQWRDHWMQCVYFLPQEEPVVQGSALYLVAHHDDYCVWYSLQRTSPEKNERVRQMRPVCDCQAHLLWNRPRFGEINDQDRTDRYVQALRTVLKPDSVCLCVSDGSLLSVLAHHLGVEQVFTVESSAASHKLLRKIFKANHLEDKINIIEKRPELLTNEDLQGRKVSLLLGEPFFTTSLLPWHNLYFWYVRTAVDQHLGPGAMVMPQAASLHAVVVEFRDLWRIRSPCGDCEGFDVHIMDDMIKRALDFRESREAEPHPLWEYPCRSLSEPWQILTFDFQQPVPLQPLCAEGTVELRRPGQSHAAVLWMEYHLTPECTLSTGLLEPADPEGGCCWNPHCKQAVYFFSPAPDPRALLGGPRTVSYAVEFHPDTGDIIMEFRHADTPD

PRMT6 = PRMT6 (Homo sapiens, UniProt Q96LA8); assay: biochemical; design: radiometric methyltransferase assay with tritiated SAM, IC50
PRMT6, sequence (Q96LA8 whole entry): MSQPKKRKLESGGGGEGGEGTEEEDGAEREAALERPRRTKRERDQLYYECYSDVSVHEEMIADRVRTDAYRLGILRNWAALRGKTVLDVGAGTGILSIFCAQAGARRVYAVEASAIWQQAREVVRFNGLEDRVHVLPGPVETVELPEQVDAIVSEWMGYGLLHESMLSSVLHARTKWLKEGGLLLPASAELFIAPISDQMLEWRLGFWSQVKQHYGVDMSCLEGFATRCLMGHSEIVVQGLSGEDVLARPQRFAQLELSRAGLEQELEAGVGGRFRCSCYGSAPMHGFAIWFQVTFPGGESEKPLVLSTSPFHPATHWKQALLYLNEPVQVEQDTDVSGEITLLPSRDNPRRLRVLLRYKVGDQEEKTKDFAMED

BCDIN3D = target: T2, BCDIN3D (Homo sapiens, UniProt Q7Z5W3); assay: biochemical; design: radiometric methyltransferase assay with tritiated SAM, IC50
T2 sequence (Q7Z5W3 1-292): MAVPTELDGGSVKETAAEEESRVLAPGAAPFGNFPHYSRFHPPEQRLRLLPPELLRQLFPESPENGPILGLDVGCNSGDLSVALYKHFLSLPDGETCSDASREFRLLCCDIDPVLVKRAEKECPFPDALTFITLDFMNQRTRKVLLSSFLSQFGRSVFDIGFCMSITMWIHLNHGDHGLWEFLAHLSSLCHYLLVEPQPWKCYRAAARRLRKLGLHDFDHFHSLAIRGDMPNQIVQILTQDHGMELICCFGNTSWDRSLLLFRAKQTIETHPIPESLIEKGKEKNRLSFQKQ

DOT1L = DOT1L (Homo sapiens, UniProt Q8TEK3); assay: biochemical; design: radiometric methyltransferase assay with tritiated SAM, IC50
DOT1L, sequence (Q8TEK3 whole entry): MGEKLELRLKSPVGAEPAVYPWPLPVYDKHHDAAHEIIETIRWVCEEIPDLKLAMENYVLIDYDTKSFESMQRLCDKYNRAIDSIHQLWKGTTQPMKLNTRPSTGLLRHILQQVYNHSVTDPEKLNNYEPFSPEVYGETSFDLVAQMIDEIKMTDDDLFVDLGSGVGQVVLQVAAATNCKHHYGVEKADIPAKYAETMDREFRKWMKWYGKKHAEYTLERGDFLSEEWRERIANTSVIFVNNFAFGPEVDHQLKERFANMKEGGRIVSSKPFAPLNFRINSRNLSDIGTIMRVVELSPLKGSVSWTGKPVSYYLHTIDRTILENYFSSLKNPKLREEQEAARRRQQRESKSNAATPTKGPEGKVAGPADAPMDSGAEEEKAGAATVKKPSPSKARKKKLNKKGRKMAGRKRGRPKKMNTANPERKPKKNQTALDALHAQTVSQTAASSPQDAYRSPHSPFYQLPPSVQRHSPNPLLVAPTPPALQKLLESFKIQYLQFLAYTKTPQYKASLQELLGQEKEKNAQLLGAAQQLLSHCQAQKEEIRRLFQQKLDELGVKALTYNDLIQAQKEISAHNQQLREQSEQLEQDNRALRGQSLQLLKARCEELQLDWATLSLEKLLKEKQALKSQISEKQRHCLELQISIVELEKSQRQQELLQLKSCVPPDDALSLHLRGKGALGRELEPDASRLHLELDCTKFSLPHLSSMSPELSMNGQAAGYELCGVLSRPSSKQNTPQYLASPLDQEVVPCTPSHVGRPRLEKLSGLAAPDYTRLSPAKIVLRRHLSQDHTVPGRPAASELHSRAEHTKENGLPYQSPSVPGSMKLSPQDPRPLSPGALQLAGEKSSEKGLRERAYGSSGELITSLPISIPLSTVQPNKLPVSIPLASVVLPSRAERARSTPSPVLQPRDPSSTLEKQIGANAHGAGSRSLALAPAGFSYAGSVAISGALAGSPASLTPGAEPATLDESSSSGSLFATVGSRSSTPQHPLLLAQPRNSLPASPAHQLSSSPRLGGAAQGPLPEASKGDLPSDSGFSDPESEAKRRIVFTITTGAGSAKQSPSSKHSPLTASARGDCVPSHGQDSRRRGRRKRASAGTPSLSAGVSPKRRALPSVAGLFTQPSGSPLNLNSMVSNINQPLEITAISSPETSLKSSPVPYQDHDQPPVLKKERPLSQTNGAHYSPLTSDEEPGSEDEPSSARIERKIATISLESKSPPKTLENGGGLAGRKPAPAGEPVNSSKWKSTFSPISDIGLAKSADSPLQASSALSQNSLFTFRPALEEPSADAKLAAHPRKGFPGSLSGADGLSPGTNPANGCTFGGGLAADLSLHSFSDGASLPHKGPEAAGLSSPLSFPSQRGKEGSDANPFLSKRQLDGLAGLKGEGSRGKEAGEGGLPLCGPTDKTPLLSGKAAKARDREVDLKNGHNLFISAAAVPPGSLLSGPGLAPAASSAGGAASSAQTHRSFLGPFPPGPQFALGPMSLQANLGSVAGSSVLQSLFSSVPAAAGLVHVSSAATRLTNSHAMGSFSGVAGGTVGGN

PRMT1 = PRMT1 (Homo sapiens, UniProt Q99873); assay: biochemical; design: radiometric methyltransferase assay with tritiated SAM, IC50
PRMT1, sequence (Q99873 whole entry): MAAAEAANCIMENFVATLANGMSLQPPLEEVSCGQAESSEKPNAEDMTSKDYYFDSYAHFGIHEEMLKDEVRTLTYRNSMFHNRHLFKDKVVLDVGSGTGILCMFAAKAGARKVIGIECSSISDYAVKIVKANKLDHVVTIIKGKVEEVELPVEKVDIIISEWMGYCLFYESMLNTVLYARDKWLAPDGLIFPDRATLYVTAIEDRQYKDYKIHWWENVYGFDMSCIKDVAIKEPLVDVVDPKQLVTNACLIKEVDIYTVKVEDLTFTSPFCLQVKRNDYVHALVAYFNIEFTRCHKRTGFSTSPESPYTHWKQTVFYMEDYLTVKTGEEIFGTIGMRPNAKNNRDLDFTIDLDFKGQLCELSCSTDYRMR

PRMT9 = target: T3, PRMT9 (Homo sapiens, UniProt Q6P2P2); assay: biochemical; design: radiometric methyltransferase assay with tritiated SAM, IC50
T3 sequence (Q6P2P2 1-845): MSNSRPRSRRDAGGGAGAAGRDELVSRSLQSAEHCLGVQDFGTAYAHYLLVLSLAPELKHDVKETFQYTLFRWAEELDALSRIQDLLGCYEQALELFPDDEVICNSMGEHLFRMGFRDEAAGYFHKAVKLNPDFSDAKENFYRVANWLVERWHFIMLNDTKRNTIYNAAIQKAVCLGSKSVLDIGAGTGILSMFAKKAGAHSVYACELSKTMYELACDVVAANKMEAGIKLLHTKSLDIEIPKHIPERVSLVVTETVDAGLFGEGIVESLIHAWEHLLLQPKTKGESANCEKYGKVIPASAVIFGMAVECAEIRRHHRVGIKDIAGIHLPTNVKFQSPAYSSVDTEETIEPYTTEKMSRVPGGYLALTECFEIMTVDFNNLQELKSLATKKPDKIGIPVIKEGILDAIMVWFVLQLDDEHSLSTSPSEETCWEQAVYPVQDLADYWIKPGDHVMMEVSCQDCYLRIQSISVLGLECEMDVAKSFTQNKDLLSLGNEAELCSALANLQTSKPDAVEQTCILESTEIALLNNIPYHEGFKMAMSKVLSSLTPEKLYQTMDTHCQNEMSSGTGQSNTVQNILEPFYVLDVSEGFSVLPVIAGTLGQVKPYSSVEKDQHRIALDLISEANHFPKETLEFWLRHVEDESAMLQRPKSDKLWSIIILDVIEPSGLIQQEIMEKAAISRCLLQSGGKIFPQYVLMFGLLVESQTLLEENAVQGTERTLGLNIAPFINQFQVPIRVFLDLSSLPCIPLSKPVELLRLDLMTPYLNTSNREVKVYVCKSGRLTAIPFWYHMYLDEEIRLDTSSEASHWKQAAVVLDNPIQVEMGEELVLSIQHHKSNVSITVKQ

PRMT7 [2] = target: T1, PRMT7; assay: SPR kinetics (Biacore T200); also radiometric SPA IC50 […]; type: binding; design: Bio-PRMT7 (amino acids 1–692)

How did the IC50 (PRMT7 [1]) turn out when `CC1(C)O[C@@H]2[C@H](O1)[C@@H](CSCCCCNCc1cccc(-c3ccc(Cl)cc3)c1)O[C@H]2n1cnc2c(N)ncnc21` [SGC8158N] was run?
Its IC50 is 14000 ± 2000 nM.

For `Nc1ncnc2c1ncn2[C@@H]1O[C@H](CSCCCCNCc2cccc(-c3ccc(Cl)cc3)c2)[C@@H](O)[C@H]1O` [SGC8158], which IC50 (PRMT6) is on record?
The IC50 was 15000 nM.

What about the IC50 (BCDIN3D) of the same compound?
Its IC50 is 1100 nM.

And the IC50 (DOT1L)?
Its IC50 is 1700 nM.

And the IC50 (PRMT1)?
Its IC50 is 12000 nM.

What about the IC50 (PRMT9) of the same compound?
The IC50 was 160 nM.

What about the Kd (PRMT7 [2]) of the same compound?
The Kd was 6.4 ± 1.2 nM.
